Experimental data published in ChEMBL document CHEMBL1201862, “PubChem BioAssay data set” (2004).
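Results reflect a 48-hour exposure of cells in 96-well plates to compound at five concentrations. Abbreviation: GI50, concentration required for 50% inhibition of growth.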 The source made the active and inactive calls. Rule as the data show it: active = GI50 up to about 1.1 µM and inactive = higher.

Legend:
Assay in all cases: DTP human tumour cell line panel, 48 h
A498 = test system: A498
UACC-257 = test system: UACC-257
SR = test system: SR
ACHN = test system: ACHN
OVCAR-4 = test system: OVCAR-4
COLO 205 = test system: COLO 205
M14 = test system: M14
MOLT-4 = test system: MOLT-4
HCC 2998 = test system: HCC 2998
BT-549 = test system: BT-549
U-251 = test system: U-251
SNB-19 = test system: SNB-19
Malme-3M = test system: Malme-3M
SNB-75 = test system: SNB-75
HL-60 = test system: HL-60
OVCAR-8 = test system: OVCAR-8
NCI-H522 = test system: NCI-H522
A549 = test system: A549
HCT-15 = test system: HCT-15
DU-145 = test system: DU-145

| SMILES | GI50 (A498) | GI50 (UACC-257) | GI50 (SR) | GI50 (ACHN) | GI50 (OVCAR-4) | GI50 (COLO 205) | GI50 (M14) | GI50 (MOLT-4) | GI50 (HCC 2998) | GI50 (BT-549) | GI50 (U-251) | GI50 (SNB-19) | GI50 (Malme-3M) | GI50 (SNB-75) | GI50 (HL-60) | GI50 (OVCAR-8) | GI50 (NCI-H522) | GI50 (A549) | GI50 (HCT-15) | GI50 (DU-145) |
| --- | --- | --- | --- | --- | --- | --- | --- | --- | --- | --- | --- | --- | --- | --- | --- | --- | --- | --- | --- | --- |
| O=C(CCc1ccc(O)c(O)c1)NCCc1cc(O)c(O)c(O)c1 | > 100 µM (inactive) | 50.1 µM (inactive) | 26.9 µM (inactive) | 33.8 µM (inactive) | 20.2 µM (inactive) | 37.8 µM (inactive) | 22.4 µM (inactive) | 21.6 µM (inactive) | > 100 µM (inactive) | 17 µM (inactive) | 17.9 µM (inactive) | > 100 µM (inactive) | > 100 µM (inactive) | 50.6 µM (inactive) | 49.5 µM (inactive) | 20.4 µM (inactive) | 17.2 µM (inactive) | 22.5 µM (inactive) | 16.4 µM | 64.7 µM (inactive) |
| CC1(C)CC(Nc2ccc(Nc3ccccc3)cc2)CC(C)(C)N1 | 28.2 µM (inactive) | 14.7 µM (inactive) | 14.6 µM (inactive) | 13.5 µM (inactive) | 34.2 µM (inactive) | 16.8 µM (inactive) | 17.7 µM (inactive) | 18.1 µM (inactive) | 15.7 µM (inactive) | 12.7 µM (inactive) | 26.1 µM (inactive) | 50.2 µM (inactive) | 17.9 µM (inactive) | 37.6 µM (inactive) | 6.97 µM (inactive) | 30.1 µM (inactive) | 10.1 µM (inactive) | 45.9 µM (inactive) | 33.8 µM | 23 µM (inactive) |
| N=C(N)C1CN(CCc2c[nH]cn2)C(=O)NC1=O (stereo not given) | > 100 µM (inactive) | > 100 µM (inactive) | > 100 µM (inactive) | > 100 µM (inactive) | > 100 µM (inactive) | > 100 µM (inactive) | > 100 µM (inactive) | > 100 µM (inactive) | > 100 µM (inactive) | > 100 µM (inactive) | > 100 µM (inactive) | > 100 µM (inactive) | 36 µM (inactive) | > 100 µM (inactive) | > 100 µM (inactive) | > 100 µM (inactive) | > 100 µM (inactive) | > 100 µM (inactive) | > 100 µM | > 100 µM (inactive) |
| CC(=O)CC1CCC(=O)/C=C/C(=O)OC(CC(C)=O)CCC(=O)/C=C/C(=O)O1 (stereo not given) | 18.3 µM (inactive) | 15.5 µM (inactive) | 2.23 µM (inactive) | 3.44 µM (inactive) | 7.83 µM (inactive) | 1.77 µM (inactive) | 3.7 µM (inactive) | 2.19 µM (inactive) | 22.8 µM (inactive) | 3.2 µM (inactive) | 21.4 µM (inactive) | 19.8 µM (inactive) | 2.43 µM (inactive) | 12.8 µM (inactive) | 2.45 µM (inactive) | 19.3 µM (inactive) | 1.14 µM (inactive) | 21.7 µM (inactive) | 2.1 µM | 19.6 µM (inactive) |
